{"source": "patent US6110491A", "about": "“Compound-loaded liposomes and methods for their preparation” (Hermes Biosciences, Inc., priority 1997, dated 2000)", "key": {"[1]": {"assay": "Doxorubicin loading into liposomes with entrapped polyacrylate / chondroitin sulfate A (Examples 1, 3)", "assay_type": "physicochemical", "procedure": "21.6 mg of polyacrylic acid (molecular weight 2,000; Aldrich Corporation, Milwaukee, Wis.) were dissolved in 3 ml of water and neutralized to pH 7.4 with NaOH to produce 100 milli-eq/L sodium polyacrylate solution. 10 mg of the mixture of egg PC, cholesterol, and PEG (molecular weight 2,000)-DSPE (Avanti Polar Lipids, Birmingham, Ala.) in the molar ratio of 10:5:1 was dissolved in chloroform, the solvent was evaporated in vacuum, the lipid film was incubated with shaking in 1 ml of the above polyacrylate solution, and the lipid dispersion was extruded under pressure through 2 stacked Nucleopore (Pleasanton, Calif.) membranes with pore size […]. […] To the so obtained liposomes, doxorubicin (Cetus Oncology, Norwalk, Conn.) was added at 200 nmol/μmol, of liposomal phospholipid. The mixture was incubated overnight at 37° C. with shaking, treated with Dowex 50W×4 (Sigma Chemical Co., St. Louis, Mo.), and equilibrated with NaCl-HEPES solution to remove non-encapsulated doxorubicin. The resulting liposomes were sterilized by filtration through a […] filter and assayed for doxorubicin by spectrophotometry and liposomal phospholipid by acid digestion-molybdene blue assay. […] Under similar conditions, doxorubicin loading into liposomes without entrapped sodium polyacrylate was 8 nmol/μmol of phospholipid.\nLiposomes were prepared as in Example 1, except that inner buffer, instead of polyacrylic acid, contained 5 mg/ml of chondroitinsulfate A (Sigma Chemical Co., St. Louis, Mo.). After overnight incubation with doxorubicin ([…] of phospholipid) at pH 7.2, free drug was removed from the liposomes, and the liposomes were assayed as in Example 1. The doxorubicin content in the resulting liposomes was 26.0 nmol/μmol of phospholipid."}, "[2]": {"test_system": "Human nasopharyngeal epidermoid carcinoma (KB) cells", "assay": "Cytotoxicity, growth inhibition by tetrazolium assay (96 hour incubation)", "assay_type": "cell-based", "conditions": "read-out: 50% growth inhibitory concentration (IC50)", "procedure": "Human nasopharyngeal epidermoid carcinoma (KB) cells were from American Type Culture Collection (ATCC, Rockville, M.D.). The cells were grown in RPMI 1640 medium supplemented with 10% heat inactivated fetal calf serum, harvested by trypsinization, and plated in 96-well tissue culture plates at 2×10^4 cells/well. After a 24 hour acclimation period, a solution of free doxorubicin or the doxorubicin liposomes described in Example 1 were added to the cells to achieve final doxorubicin concentrations of 0.125-8 μg/ml. \"Empty\" liposomes were added to control cells at matching concentrations of the lipid. After a 96 hour incubation period, viability of the cells was measured by tetrazolium assay (Carmichael, et al., 1987). 50% growth inhibitory concentrations (IC50) of the studied preparation were as follows: […]"}, "[3]": {"assay": "Effect of membrane-active ion carriers on loading of doxorubicin into liposomes with entrapped potassium polyacrylate (Example 6, FIG. 1)", "assay_type": "physicochemical", "conditions": "valinomycin, CCCP or nigericin vs. none (FIG. 1)", "description": "The liposomes prepared according to the present invention can be clearly distinguished from similar liposomes prepared by pH gradient, or ammonium ion gradient methods, by the liposomal response to membrane-active ion carriers which destroy transmembrane electrochemical gradients. For example, CCCP is a membrane proton carrier which destroys transmembrane pH gradients and leads to quick release of a liposomal-entrapped compound.\nIn contrast, liposomes prepared according to this invention, load doxorubicin in the presence of CCCP or nigericin with nearly the same efficiency as in the absence of such membrane-active ion carriers. This is shown in FIG. 1, where the loading of doxorubicin into liposomes in the presence of valinomycin, CCCP or nigericin was determined as a function of time. The liposomes were prepared as described in Example 1 to have entrapped potassium polyacrylate."}}, "note": "“Also recorded” adds a separate entry of the source.", "data": [{"smiles": "COc1cccc2c1C(=O)c1c(O)c3c(c(O)c1C2=O)C[C@@](O)(C(=O)CO)C[C@@H]3O[C@H]1C[C@H](N)[C@H](O)[C@H](C)O1", "note": "[doxorubicin]", "values": [{"measurement": "Doxorubicin content in the resulting liposomes", "setting": "[1]; entrapped chondroitin sulfate A 5 mg/ml, overnight, pH 7.2", "value": "26.0 nmol/μmol of phospholipid"}, {"measurement": "Doxorubicin content of liposomes", "setting": "[1]; entrapped sodium polyacrylate, egg PC/cholesterol/PEG-DSPE, doxorubicin 200 nmol/μmol, overnight 37° C.", "value": "129 nmol/μmol of liposomal phospholipid"}, {"measurement": "Doxorubicin loading into liposomes", "setting": "[1]; without entrapped sodium polyacrylate, similar conditions", "value": "8 nmol/μmol of phospholipid"}, {"measurement": "IC50", "setting": "[2]", "value": 0.35, "unit": "µg/mL"}, {"measurement": "Doxorubicin loading in presence of membrane-active ion carriers", "setting": "[3]", "value": "substantially equal efficiency; also recorded: substantially unaffected"}]}]}
